Test results taken from paper PMC5967881 (Journal of medicinal chemistry, 2017).
Like-named read-outs stand apart in the source and are kept apart here.

Tests used:
[1] = tested on: A/California/07/2009 (H1N1) virus; assay: microbe, parasite or virus in culture; type: cell-based, influenza A virus; settings: for activity at 10 µM: read-out: % plaque formation at 10 μM drug concentration against A/California/07/2009 (H1N1); for EC50: read-out: EC50 against A/California/07/2009 (H1N1)
[2] = biological target: wild-type AM2 channel (AM2-WT) (Influenza A virus, UniProt P0DOF5); assay: biochemical; settings: pH 5.5, read-out: Electrophysiological TEVC assay (% WT channel inhibition), 100 μM, two-minute time point, pH 5.5, Xenopus laevis oocytes
wild-type AM2 channel (AM2-WT), sequence (P0DOF5 whole entry): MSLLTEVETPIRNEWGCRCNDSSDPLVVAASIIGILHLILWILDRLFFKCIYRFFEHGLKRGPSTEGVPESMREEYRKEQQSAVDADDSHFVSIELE

Question: For `Clc1cc(-c2cc(CNC34CC5CC(CC(C5)C3)C4)no2)c(Cl)s1` [9u, N-((5-(2,5-dichlorothiophen-3-yl)isoxazol-3-yl)methyl)adamantan-1-amine], which activity at 10 µM ([1]; Influenza A virus, H1N1, MDCK) is on record?
Answer: Its activity at 10 µM is less than 20%.

Question: With `OC12CC3CC(C1)CC(NCc1cc(-c4cc(Cl)sc4Cl)on1)(C3)C2` [9v, 3-({[5-(2,5-dichlorothiophen-3-yl)-1,2-oxazol-3-yl]methyl}amino)adamantan-1-ol] as the molecule, how does the activity at 10 µM ([1]; Influenza A virus, H1N1, MDCK) read?
Answer: The activity at 10 µM was less than 20%.

Question: Which results are given for `Oc1ccccc1-c1cc(CNC23CC4CC(CC(C4)C2)C3)no1` [9h, 2-(3-(((adamantan-1-yl)amino)methyl)isoxazol-5-yl)phenol]?
Answer: inhibition at 100 µM [2]: ≤ 30%; activity at 10 µM ([1]; Influenza A virus, H1N1, MDCK): < 20%; EC50 ([1]; Influenza A virus, H1N1, MDCK): 100 to 1200 nM

Question: What does the source list for `OC12CC3CC(C1)CC(NCc1cc(-c4ccccc4Cl)on1)(C3)C2` [9d, 3-({[5-(2-chlorophenyl)-1,2-oxazol-3-yl]methyl}amino)adamantan-1-ol]?
Answer: inhibition at 100 µM [2]: ≤ 30%; activity at 10 µM ([1]; Influenza A virus, H1N1, MDCK): < 20%; EC50 ([1]; Influenza A virus, H1N1, MDCK): 100 to 1200 nM

Question: For `c1ccc(-c2cc(CNC34CC5CC(CC(C5)C3)C4)no2)cc1` [9a, N-[(5-phenyl-1,2-oxazol-3-yl)methyl]adamantan-1-amine], which inhibition at 100 µM [2] is on record?
Answer: Its inhibition at 100 µM is no more than 30%.

Question: And the activity at 10 µM ([1]; Influenza A virus, H1N1, MDCK)?
Answer: The activity at 10 µM was less than 20%.

Question: What about the EC50 ([1]; Influenza A virus, H1N1, MDCK) of the same molecule?
Answer: Its EC50 is 100 to 1200 nM.

Question: How did the “% plaque formation at 10 μM drug concentration against A/California/07/2009 (H1N1)” value [1] turn out when “N-((5-(2-(methylsulfonyl)phenyl)isoxazol-3-yl)methyl)adamantan-1-amine [9m]” was run?
Answer: Its value is 57.1 ± 2.4%.

Question: `COc1sccc1-c1cc(CNC23CC4CC(CC(C4)C2)C3)no1` [9t, N-((5-(2-methoxythiophen-3-yl)isoxazol-3-yl)methyl)adamantan-1-amine] was tested. Which inhibition at 100 µM [2] did it give?
Answer: The inhibition at 100 µM was no more than 30%.

Question: And the activity at 10 µM ([1]; Influenza A virus, H1N1, MDCK)?
Answer: Its activity at 10 µM is less than 20%.

Question: How did the inhibition at 100 µM [2] turn out when `CSc1ccccc1-c1cc(CNC23CC4CC(CC(O)(C4)C2)C3)no1` [9f, 3-[({5-[2-(methylsulfanyl)phenyl]-1,2-oxazol-3-yl}methyl)amino]adamantan-1-ol] was run?
Answer: The inhibition at 100 µM was no more than 30%.

Question: And the activity at 10 µM ([1]; Influenza A virus, H1N1, MDCK)?
Answer: Its activity at 10 µM is less than 20%.

Question: And the EC50 ([1]; Influenza A virus, H1N1, MDCK)?
Answer: The EC50 was 100 to 1200 nM.

Question: Which “% plaque formation at 10 μM drug concentration against A/California/07/2009 (H1N1)” value [1] does the source give for `Clc1ccc(-c2cc(CNC34CC5CC(CC(C5)C3)C4)no2)s1` [9q, N-((5-(5-chlorothiophen-2-yl)isoxazol-3-yl)methyl)adamantan-1-amine] here?
Answer: The value was 0%.

Question: And the activity at 10 µM ([1]; Influenza A virus, H1N1, MDCK)?
Answer: Its activity at 10 µM is less than 20%.

Question: And the EC50 [1]?
Answer: Its EC50 is 100 ± 30 nM.

Question: `Clc1cc(-c2cc(CNC34CC5CC(CC(C5)C3)C4)no2)cs1` [9r, N-((5-(5-chlorothiophen-3-yl)isoxazol-3-yl)methyl)adamantan-1-amine] was tested. Which activity at 10 µM ([1]; Influenza A virus, H1N1, MDCK) did it give?
Answer: Its activity at 10 µM is less than 20%.
